From PubChem BioAssay (NCI) come the findings set out here.

Some test systems named below: TK-10 renal; SK-MEL-28 melanoma; CAKI-1 renal; SK-MEL-5 melanoma; MDA-MB-231 breast; RPMI-8226 leukemia; UO-31 renal; MCF7 breast; HOP-62 NSCLC; SF-295 CNS; MDA-N; OVCAR-3 ovarian; NCI-H460 lung; COLO 205 colon; MALME-3M melanoma; SK-OV-3 ovarian; HCC-2998 colon; A498 renal; SN12C renal.
What all share (assay): inhibition of tumour cell growth, NCI panel, 48 h

SMILES strings stand for the structures.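 Each compound was tested at five concentrations against cells in 96-well plates for 48 hours. TGI: concentration producing complete growth inhibition.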

`O=c1oc2ccccc2cc1-c1csc(Nc2cc(Cl)cc(Cl)c2)n1`: the TGI with TK-10 renal is 85.2 µM; in the experiment with SK-MEL-28 melanoma, 59 µM; in the experiment with CAKI-1 renal, greater than 32.4 µM; with SK-MEL-5 melanoma, greater than 100 µM; with MDA-MB-231 breast, 63.8 µM; in the experiment with RPMI-8226 leukemia it was greater than 100 µM. Besides, the TGI in the experiment with UO-31 renal was 7.53 µM; in the experiment with MCF7 breast it was 61.4 µM; in the experiment with HOP-62 NSCLC it was 17.9 µM; in the experiment on SF-295 CNS it was greater than 44.5 µM; in the experiment with MDA-N it was greater than 100 µM; in the experiment with OVCAR-3 ovarian, 35.2 µM. Further, the TGI in the experiment with NCI-H460 lung is greater than 100 µM; with COLO 205 colon, greater than 100 µM; in the experiment on MALME-3M melanoma it was 64.8 µM; in the experiment on SK-OV-3 ovarian, greater than 49.5 µM; with HCC-2998 colon, greater than 100 µM; in the experiment with A498 renal, 65.6 µM. This compound registered a TGI in the experiment on SN12C renal greater than 44.8 µM.

Take `CN(CCCCN1CCCC1)CCCCN(C)C(=O)Cc1ccc(Cl)c(Cl)c1`: the TGI with TK-10 renal is 32.6 µM; with SK-MEL-28 melanoma, 3.88 µM; in the experiment with CAKI-1 renal, 39.2 µM; in the experiment on SK-MEL-5 melanoma, 19.9 µM; in the experiment with MDA-MB-231 breast, 23.5 µM; in the experiment on RPMI-8226 leukemia, 23.9 µM. Moreover, the TGI in the experiment with UO-31 renal is 3.31 µM; in the experiment with MCF7 breast it was 28.3 µM; in the experiment on HOP-62 NSCLC, 34.8 µM; in the experiment with SF-295 CNS, 38 µM; with MDA-N it was 12.2 µM; with OVCAR-3 ovarian, 44.5 µM. Besides, the TGI was found to be 30.6 µM in the experiment on NCI-H460 lung; 27.4 µM with COLO 205 colon; 34.4 µM with MALME-3M melanoma; 47.2 µM in the experiment on SK-OV-3 ovarian; 18.5 µM in the experiment with HCC-2998 colon; 32.4 µM in the experiment on A498 renal. Moreover, the TGI in the experiment on SN12C renal was 36.8 µM.

`CC(=O)c1cccc(Nc2c3ccccc3nc3occc23)c1`: the TGI in the experiment with TK-10 renal worked out at 94.1 µM; in the experiment on SK-MEL-28 melanoma it was 7.97 µM; with CAKI-1 renal, 8.82 µM; in the experiment on SK-MEL-5 melanoma, 23 µM; in the experiment with MDA-MB-231 breast, 67.7 µM; in the experiment on RPMI-8226 leukemia, 15.9 µM. Also, the TGI in the experiment on UO-31 renal is greater than 100 µM; in the experiment with MCF7 breast, greater than 100 µM; with HOP-62 NSCLC, 20.6 µM; in the experiment with SF-295 CNS, 44 µM; in the experiment with MDA-N, greater than 100 µM; in the experiment with OVCAR-3 ovarian, 5.99 µM. Also, the TGI in the experiment with NCI-H460 lung was greater than 100 µM; with COLO 205 colon, 29.1 µM; in the experiment with MALME-3M melanoma, 27.6 µM; in the experiment on SK-OV-3 ovarian, 36 µM; in the experiment with HCC-2998 colon it was 25.2 µM; in the experiment on A498 renal, 74.7 µM. The TGI in the experiment on SN12C renal is greater than 100 µM.

Take `Nc1nc(N)c2ncn(-c3ccc(Cl)c(Cl)c3)c2n1`: the TGI in the experiment on TK-10 renal is 70.6 µM; in the experiment on SK-MEL-28 melanoma, greater than 100 µM; with CAKI-1 renal, greater than 100 µM; in the experiment with SK-MEL-5 melanoma, greater than 100 µM; in the experiment with MDA-MB-231 breast, 77.7 µM; in the experiment with RPMI-8226 leukemia, 75.2 µM. The TGI was 59.2 µM with UO-31 renal; greater than 100 µM in the experiment with MCF7 breast; 87.7 µM in the experiment on HOP-62 NSCLC; 69.6 µM with SF-295 CNS; greater than 100 µM in the experiment with MDA-N; 44.1 µM in the experiment with OVCAR-3 ovarian. The TGI in the experiment on COLO 205 colon was 28.7 µM; with MALME-3M melanoma, 49.2 µM; with SK-OV-3 ovarian, greater than 100 µM; in the experiment on HCC-2998 colon it was greater than 100 µM; in the experiment with A498 renal, 32.4 µM; in the experiment on SN12C renal, 61.7 µM.

Regarding `FC(F)(F)c1ccc2c(c1)nc(Cc1ccc(Cl)c(Cl)c1)n2CC1CCCN2CCCCC12` (centres undefined), the TGI in the experiment on TK-10 renal was 74.9 µM; in the experiment with SK-MEL-28 melanoma, 53.8 µM; in the experiment on CAKI-1 renal, greater than 100 µM; with SK-MEL-5 melanoma, 30.3 µM; in the experiment with MDA-MB-231 breast, 48.7 µM; with RPMI-8226 leukemia it was greater than 100 µM. The TGI was 62.9 µM in the experiment on MCF7 breast; greater than 100 µM in the experiment with HOP-62 NSCLC; 51.7 µM with SF-295 CNS; 38.8 µM in the experiment on MDA-N; 82.3 µM with OVCAR-3 ovarian; 52.4 µM with NCI-H460 lung. Moreover, the TGI in the experiment with COLO 205 colon amounted to 33.5 µM; in the experiment on MALME-3M melanoma, 28.6 µM; in the experiment on SK-OV-3 ovarian it was 90 µM; with HCC-2998 colon it was 22.5 µM; with A498 renal, 67.6 µM; with SN12C renal, 42.8 µM.

For `C=CCOc1ccc(C2(c3ccc(OCC=C)cc3)C(=O)Nc3ccccc32)cc1`, the TGI in the experiment on TK-10 renal, in the experiment on SK-MEL-28 melanoma, in the experiment with CAKI-1 renal, in the experiment on SK-MEL-5 melanoma, with MDA-MB-231 breast and in the experiment on RPMI-8226 leukemia was greater than 10 µM each time. Further, the TGI in the experiment with MCF7 breast, in the experiment with HOP-62 NSCLC, in the experiment on SF-295 CNS, with MDA-N, with OVCAR-3 ovarian and in the experiment with NCI-H460 lung was greater than 10 µM throughout. Further, the TGI with COLO 205 colon, with MALME-3M melanoma, in the experiment on SK-OV-3 ovarian, with HCC-2998 colon, in the experiment with A498 renal and in the experiment on SN12C renal was greater than 10 µM each time.

Turning to `CN(C)/N=C1\C=C2CC[C@H](O[Si](C)(C)C(C)(C)C)[C@@]2(C)CC1`, the TGI in the experiment on TK-10 renal stood at 34.6 µM; in the experiment with SK-MEL-28 melanoma it was 29.5 µM; in the experiment with CAKI-1 renal, 27.3 µM; with SK-MEL-5 melanoma it was 24.9 µM; with MDA-MB-231 breast it was 30.3 µM; in the experiment with RPMI-8226 leukemia, 22 µM. Further, the TGI in the experiment on UO-31 renal came to 29.8 µM; in the experiment with MCF7 breast, 31.5 µM; with HOP-62 NSCLC, 32.6 µM; with SF-295 CNS it was 30 µM; with MDA-N, 41.4 µM; in the experiment with OVCAR-3 ovarian, 27.9 µM. The TGI with NCI-H460 lung came to 31.9 µM; in the experiment with COLO 205 colon it was 32.1 µM; in the experiment with MALME-3M melanoma it was 30.8 µM; in the experiment on SK-OV-3 ovarian, 68.2 µM; in the experiment with HCC-2998 colon it was 30.6 µM; in the experiment on A498 renal, 38.7 µM.
